Source: ChEMBL document CHEMBL3414470, “Synthesis and biological evaluation of 4-oxycoumarin derivatives as a new class of antifilarial agents” (Eur J Med Chem, 2015)
≈ marks a conversion by molar mass, not a printed value. Calls of active or inactive are those of the source. The rule behind the calls is not given here.

Assays:
Brugia malayi [1] = experiment: Antifilarial activity against Brugia malayi adult worm assessed as reduction in motility after 5 days by MTT dye reduction assay; format: functional, organism-based
Brugia malayi [2] = experiment: Antifilarial activity against Brugia malayi microfilaria assessed as reduction in motility after 5 days by MTT dye reduction assay; format: functional, organism-based
Brugia malayi [3] = experiment: Antifilarial activity against Brugia malayi adult worm infected in jird model assessed as adulticidal activity at 100 mg/kg, sc after 5 days measured till day 45 relative to control; format: functional; details: route subcutaneous
Brugia malayi [4] = experiment: Antifilarial activity against Brugia malayi adult worm infected in jird model assessed as sterile female at 100 mg/kg, sc after 5 days measured till day 45 relative to control; format: functional; details: route subcutaneous
Brugia malayi [5] = experiment: Antifilarial activity against Brugia malayi microfilariae infected in jird model assessed as microfilaricidal activity at 100 mg/kg, sc after 5 days measured till day 45 relative to control; format: functional; details: route subcutaneous
Brugia malayi [6] = experiment: Antifilarial activity against Brugia malayi adult worm assessed as reduction in motility at 2.5 uM after 5 days by MTT dye reduction assay; format: functional; details: 120 h
Brugia malayi [7] = experiment: Antifilarial activity against Brugia malayi adult worm assessed as reduction in motility at 1.25 uM after 5 days by MTT dye reduction assay; format: functional; details: 120 h
Brugia malayi [8] = experiment: Antifilarial activity against Brugia malayi adult worm assessed as reduction in motility at 0.625 uM after 5 days by MTT dye reduction assay; format: functional; details: 120 h
Brugia malayi [9] = experiment: Antifilarial activity against Brugia malayi adult worm assessed as reduction in motility at 0.312 uM after 5 days by MTT dye reduction assay; format: functional; details: 120 h
Brugia malayi [10] = experiment: Antifilarial activity against Brugia malayi microfilaria assessed as reduction in motility at 2.5 uM after 5 days by MTT dye reduction assay; format: functional; details: 120 h
Brugia malayi [11] = experiment: Antifilarial activity against Brugia malayi microfilaria assessed as reduction in motility at 1.25 uM after 5 days by MTT dye reduction assay; format: functional; details: 120 h
Brugia malayi [12] = experiment: Antifilarial activity against Brugia malayi microfilaria assessed as reduction in motility at 0.625 uM after 5 days by MTT dye reduction assay; format: functional; details: 120 h
Brugia malayi [13] = experiment: Antifilarial activity against Brugia malayi microfilaria assessed as reduction in motility at 0.312 uM after 5 days by MTT dye reduction assay; format: functional; details: 120 h
[14] = Selectivity index, ratio of CC50 for African green monkey Vero cells to IC50 for Brugia malayi adult worm; format: functional
[15] = Selectivity index, ratio of CC50 for African green monkey Vero cells to IC50 for Brugia malayi microfilaria; format: functional
[16] = Cytotoxicity against African green monkey Vero cells after 72 hrs by resazurin dye-based fluorescence assay; format: cell-based; details: chlorocebus sabaeus, Vero cells
Brugia malayi [17] = experiment: Antifilarial activity against Brugia malayi adult worm assessed as reduction in motility at 5 uM after 5 days by MTT dye reduction assay; format: functional; details: 120 h
Brugia malayi [18] = experiment: Antifilarial activity against Brugia malayi adult worm assessed as reduction in motility at 10 uM after 5 days by MTT dye reduction assay; format: functional, organism-based
Brugia malayi [19] = experiment: Antifilarial activity against Brugia malayi microfilaria assessed as reduction in motility at 5 uM after 5 days by MTT dye reduction assay; format: functional; details: 120 h
Brugia malayi [20] = experiment: Antifilarial activity against Brugia malayi microfilaria assessed as reduction in motility at 10 uM after 5 days by MTT dye reduction assay; format: functional, organism-based
Brugia malayi [21] = experiment: Antifilarial activity against Brugia malayi adult worm assessed as reduction in motility at 0.19 uM after 5 days by MTT dye reduction assay; format: functional; details: 120 h
Brugia malayi [22] = experiment: Antifilarial activity against Brugia malayi microfilaria assessed as reduction in motility at 0.19 uM after 5 days by MTT dye reduction assay; format: functional; details: 120 h

| SMILES | MIC (Brugia malayi [1]; Brugia malayi, 120 h) [µM] | MIC (Brugia malayi [2]; Brugia malayi, 120 h) [µM] | Activity (Brugia malayi [3]) [%] | Activity (Brugia malayi [4]) [%] | Activity (Brugia malayi [5]) [%] | inhibition at 2.5 µM (Brugia malayi [6]) [%] | inhibition at 1.25 µM (Brugia malayi [7]) [%] | inhibition at 0.625 µM (Brugia malayi [8]) [%] | inhibition at 0.312 µM (Brugia malayi [9]) [%] | inhibition at 2.5 µM (Brugia malayi [10]) [%] | inhibition at 1.25 µM (Brugia malayi [11]) [%] | inhibition at 0.625 µM (Brugia malayi [12]) [%] | inhibition at 0.312 µM (Brugia malayi [13]) [%] | IC50 (Brugia malayi [1]; Brugia malayi, 120 h) [nM] | Ratio CC50/IC50 [14] | IC50 (Brugia malayi [2]; Brugia malayi, 120 h) [nM] | Ratio CC50/IC50 [15] | CC50 at 72 h [16] [nM] | inhibition at 5 µM (Brugia malayi [17]) [%] | inhibition at 5 µM (Brugia malayi [19]) [%] | further results |
| --- | --- | --- | --- | --- | --- | --- | --- | --- | --- | --- | --- | --- | --- | --- | --- | --- | --- | --- | --- | --- | --- |
| CCN(CC)C(=O)N1CCN(C)CC1 [DIETHYLCARBAMAZINE] | – | – | 33.3 | 0 | 39.5 | – | – | – | – | – | – | – | – | – | – | – | – | – | – | – | MIC (Brugia malayi [1]): inactive; MIC (Brugia malayi [2]): inactive |
| O=c1cc(OCC(O)CNC2CCCCC2)c2ccccc2o1 (configuration not stated) | 2.5 (≈ 0.793 µg/mL) | 2.5 (≈ 0.793 µg/mL) | 66.6 | 0 | 31.8 | 92 | 47 | 24.2 | 16.2 | 100 | 100 | 50 | 50 | 360 | >277.7 | 260 | >384.6 | > 100000 | – | – | – |
| O=c1cc(OCC(O)CN2CCOCC2)c2ccccc2o1 (configuration not stated) | – | – | – | – | – | – | – | – | – | – | – | – | – | – | – | – | – | – | 20.1 | 1 | Activity (Brugia malayi [18]): inactive; Activity (Brugia malayi [20]): inactive; MIC (Brugia malayi [1]): inactive; MIC (Brugia malayi [2]): inactive |
| O=c1cc(OCC(O)CN2CCCCC2)c2ccccc2o1 (configuration not stated) | – | – | – | – | – | – | – | – | – | – | – | – | – | – | – | – | – | – | 23.7 | 1 | Activity (Brugia malayi [18]): inactive; Activity (Brugia malayi [20]): inactive; MIC (Brugia malayi [1]): inactive; MIC (Brugia malayi [2]): inactive |
| Cc1ccc(NCC(O)COc2cc(=O)oc3ccccc23)cc1 (configuration not stated) | 5 (≈ 1.63 µg/mL) | 2.5 (≈ 0.813 µg/mL) | 24.8 | 0 | 31.7 | 38.6 | 12.8 | 8.9 | 9.6 | 75 | 75 | 75 | 75 | 1380 | >72.4 | 180 | >555.5 | > 100000 | 78.9 | 100 | – |

Now from value to compound, other results behind:

| MIC (Brugia malayi [1]; Brugia malayi, 120 h) [µM] | MIC (Brugia malayi [2]; Brugia malayi, 120 h) [µM] | SMILES | Activity (Brugia malayi [3]) [%] | Activity (Brugia malayi [4]) [%] | Activity (Brugia malayi [5]) [%] | inhibition at 2.5 µM (Brugia malayi [6]) [%] | inhibition at 1.25 µM (Brugia malayi [7]) [%] | inhibition at 0.625 µM (Brugia malayi [8]) [%] | inhibition at 0.312 µM (Brugia malayi [9]) [%] | inhibition at 2.5 µM (Brugia malayi [10]) [%] | inhibition at 1.25 µM (Brugia malayi [11]) [%] | inhibition at 0.625 µM (Brugia malayi [12]) [%] | inhibition at 0.312 µM (Brugia malayi [13]) [%] | IC50 (Brugia malayi [1]; Brugia malayi, 120 h) [nM] | Ratio CC50/IC50 [14] | IC50 (Brugia malayi [2]; Brugia malayi, 120 h) [nM] | Ratio CC50/IC50 [15] | CC50 at 72 h [16] [nM] | inhibition at 5 µM (Brugia malayi [17]) [%] | inhibition at 5 µM (Brugia malayi [19]) [%] | further results |
| --- | --- | --- | --- | --- | --- | --- | --- | --- | --- | --- | --- | --- | --- | --- | --- | --- | --- | --- | --- | --- | --- |
| 5 (≈ 1.59 µg/mL) | 2.5 (≈ 0.796 µg/mL) | CN1CCN(CC(O)COc2cc(=O)oc3ccccc23)CC1 (configuration not stated) | 44.4 | 0 | 30.4 | 45.8 | 38.7 | 29.8 | 11.8 | 75 | 75 | 75 | 75 | 1730 | >57.8 | 280 | >357.14 | > 100000 | 85.6 | 100 | – |
| 2.5 (≈ 0.728 µg/mL) | 2.5 (≈ 0.728 µg/mL) | CCCCNCC(O)COc1cc(=O)oc2ccccc12 (configuration not stated) | – | – | – | 84.9 | 52.4 | 48.9 | 46.9 | 100 | 75 | 50 | 1 | 690 | >144.9 | 430 | >232.5 | > 100000 | – | – | inhibition at 0.19 µM (Brugia malayi [21]): 8.9%; inhibition at 0.19 µM (Brugia malayi [22]): 1% |
